Measurements reported in PMC4849045, “Hepatoprotective Limonoids from Andiroba (Carapa guianensis)” (International Journal of Molecular Sciences, 2016).
Read-outs that look alike come from different tables or passages of the source.

Columns and labels:
[1] = tested on: primary cultured mouse hepatocytes; assay: D-GalN-induced cytotoxicity in primary cultured mouse hepatocytes (MTT assay); details: Hepatocyte, read-out: Inhibition (%) of D-GalN-induced cytotoxicity
Experimental: Assay for the D-GalN-induced cytotoxicity in primary cultured mouse hepatocytes was performed as described previously [33, 35, 36].

[2] = tested on: mouse peritoneal macrophages; details: mean ± S.E.M. (n = 4), cited from earlier work
[3] = tested on: LPS-activated NO production in mouse peritoneal macrophages; details: cited from earlier work; for Inhibition (%) of LPS-activated NO production: mean ± S.E.M. (n = 4); for IC50: mouse peritoneal macrophages, read-out: IC50, inhibition of LPS-activated NO production
[4] = tested on: D-GalN/LPS-induced liver injury in mice; assay: D-GalN/LPS-induced liver injury in mice; assay type: in vivo, mouse; details: p.o.; for Mortality: dead/total; for sALT / sAST: mean ± S.E.M.
Experimental: Male ddY mice (Kiwa Laboratory Animal Co., Ltd., Wakayama, Japan) were housed at a constant temperature of 23 ± 2°C and were fed a standard laboratory chow (MF, Oriental Yeast Co., Ltd., Tokyo, Japan). The animals were fasted for 24 h prior to the beginning of the experiment but were allowed free access to tap water. All experiments were performed with conscious mice unless otherwise noted. The experimental protocol was approved by the Experimental Animal Research Committee of Kindai University (KAPR-26-001, 1 April 2014).
The method described by Tiegs et al. was modified and used for this study. Curcumin [36] and silybin were used as reference compounds.

[5] = tested on: L929 cells; assay: TNF-α-induced cytotoxicity in L929 cells (MTT assay); assay type: cell-based; details: Mus musculus; for inhibition at 1 µM / inhibition at 3 µM / inhibition at 10 µM / inhibition at 30 µM: read-out: Inhibition (%) of TNF-α-induced cytotoxicity
Experimental: The effects of the limonoids (1–17) on the sensitivity of hepatocytes to TNF-α were assessed by measuring TNF-α-induced decreases in the viability of L929 cells, a TNF-α-sensitive cell line, by using the MTT assay. In the absence of a test sample, the cells incubated with 1 ng/mL TNF-α for 44 h were compared with those not incubated with TNF-α.
Assay for the TNF-α-induced cytotoxicity in L929 cells was performed as described previously. Silybin was used as a reference compound [36].

[6] = tested on: primary cultured mouse hepatocytes; details: cited from earlier work; for Inhibition (%) of D-GalN-induced cytotoxicity: mean ± S.E.M. (n = 4)
[7] = tested on: L929 cells; design: method as in PMID 24697904; details: cited from earlier work; for Inhibition (%) of TNF-α-induced cytotoxicity: mean ± S.E.M. (n = 4)
[8] = tested on: D-GalN/LPS-induced liver injury in mice; design: method as in PMID 24697904; details: p.o., cited from earlier work; for Mortality: dead/total; for sALT / sAST: mean ± S.E.M.
[9] = 100 µM, # = cytotoxic effects were observed
[10] = L929, 1 µM, 1 ng/mL TNF-α, 44 h, mean ± S.E.M. (n = 4)
[11] = L929, 3 µM, 1 ng/mL TNF-α, 44 h, mean ± S.E.M. (n = 4)
[12] = L929, 10 µM, 1 ng/mL TNF-α, 44 h, mean ± S.E.M. (n = 4)
[13] = L929, 30 µM, 1 ng/mL TNF-α, 44 h, mean ± S.E.M. (n = 4)

| SMILES | inhibition at 3 µM [1] [%] | inhibition at 10 µM [1] [%] | inhibition at 30 µM [1] [%] | inhibition at 100 µM [1] [%] | cell viability (%) in MTT assay (values in parentheses) ([2]; 3 µM) [%] | cell viability (%) in MTT assay (values in parentheses) ([2]; 10 µM) [%] | cell viability (%) in MTT assay (values in parentheses) ([2]; 30 µM) [%] | cell viability (%) in MTT assay (values in parentheses) [2, 9] [%] | Inhibition (%) of LPS-activated NO production ([3]; 3 µM) [%] | Inhibition (%) of LPS-activated NO production ([3]; 10 µM) [%] | Inhibition (%) of LPS-activated NO production ([3]; 30 µM) [%] | Inhibition (%) of LPS-activated NO production ([3]; 100 µM) [%] | IC50 [3] [µM] | sALT Inhibition (%) ([4]; 25 mg/kg) | sAST Inhibition (%) ([4]; 25 mg/kg) | Mortality ([4]; 25 mg/kg) | sALT ([4]; 25 mg/kg) [Karmen Unit] | sAST ([4]; 25 mg/kg) [Karmen Unit] | sALT Inhibition (%) ([4]; 50 mg/kg) | sAST Inhibition (%) ([4]; 50 mg/kg) | other results |
| --- | --- | --- | --- | --- | --- | --- | --- | --- | --- | --- | --- | --- | --- | --- | --- | --- | --- | --- | --- | --- | --- |
| CC1(C)C(=O)C=C[C@@]2(C)C1CC(=O)[C@]1(C)C2CC[C@@]2(C)[C@H](c3ccoc3)OC(=O)[C@H]3O[C@]321 (stereo partly drawn) [compound 3, 7-deacetoxy-7-oxogedunin] | -4.6 ± 0.5 | -8.2 ± 0.9 | -8.3 ± 1.1 | -8.9 ± 0.6 | 100.3 ± 3.9 | 98.9 ± 3.2 | 98.8 ± 7.4 | 83.7 ± 1.2 | 7.4 ± 5.2 | 40.9 ± 4.7 | 94.0 ± 0.8 | 88.1 ± 2.1 | 12.8 | 66.3 | 60.3 | 0/7 | 2899 ± 1024 | 2093 ± 742 | 70.2 | 66.7 | Mortality ([4]; 50 mg/kg): 1/7; sALT ([4]; 50 mg/kg): 2572 ± 903 Karmen Unit; sAST ([4]; 50 mg/kg): 1759 ± 579 Karmen Unit; IC50 ([5]; L929, 44 h, read-out: IC50, inhibition of TNF-α-induced decrease in cell viability): 7.3 µM; inhibition at 1 µM ([5]; L929, 44 h): 5.8 ± 1.5%; inhibition at 3 µM ([5]; L929, 44 h): 26.7 ± 4.5%; inhibition at 10 µM ([5]; L929, 44 h): 58.6 ± 7.2%; inhibition at 30 µM ([5]; L929, 44 h): 68.7 ± 4.8% |
| COc1cc(C2Oc3cc([C@H]4Oc5cc(O)cc(O)c5C(=O)[C@@H]4O)ccc3OC2CO)ccc1O (stereo partly drawn) [Silybin, silybin] |  |  |  |  |  |  |  |  |  |  |  |  |  |  |  |  |  |  |  |  | Inhibition (%) of D-GalN-induced cytotoxicity ([6]; 3 µM): 4.8 ± 1.1%; Inhibition (%) of D-GalN-induced cytotoxicity ([6]; 10 µM): 7.7 ± 0.7%; Inhibition (%) of D-GalN-induced cytotoxicity ([6]; 30 µM): 45.2 ± 8.8 %; Inhibition (%) of D-GalN-induced cytotoxicity ([6]; 100 µM): 77.0 ± 5.5 %; IC50 ([6]; primary mouse hepatocytes, read-out: IC50, inhibition of D-GalN-induced cytotoxicity): 38.8 µM; Inhibition (%) of TNF-α-induced cytotoxicity ([7]; 3 µM): 5.3 ± 2.8%; Inhibition (%) of TNF-α-induced cytotoxicity ([7]; 10 µM): 22.0 ± 3.8 %; Inhibition (%) of TNF-α-induced cytotoxicity ([7]; 30 µM): 48.0 ± 4.1 %; Inhibition (%) of TNF-α-induced cytotoxicity ([7]; 100 µM): 50.8 ± 3.9 %; IC50 ([7]; L929 cells, read-out: IC50, inhibition of TNF-α-induced decrease in cell viability): 37.2 µM; sALT Inhibition (%) ([4]; 500 mg/kg): 71.9%; sAST Inhibition (%) ([4]; 500 mg/kg): 71.1%; Mortality ([4]; 500 mg/kg): 0/8; sALT ([4]; 500 mg/kg): 1990 ± 439 Karmen Unit; sAST ([4]; 500 mg/kg): 1361 ± 191 Karmen Unit |
| CC(=O)O[C@@H]1C[C@H]2C(C)(C)C(=O)C=C[C@]2(C)[C@H]2CC[C@@]3(C)[C@H](c4ccoc4)OC(=O)[C@H]4O[C@]43[C@@]21C [compound 1, gedunin] | -8.4 ± 1.9 | -3.9 ± 0.4 | -3.2 ± 0.9 | -5.2 ± 0.2 | 102.2 ± 5.3 | 119.5 ± 5.3 | 94.8 ± 1.4 | 3.0 ± 0.4 | 25.1 ± 2.5 | 84.5 ± 2.3 | 101.8 ± 0.6 | 100.9 ± 0.4 | 4.6 | 65.7 | 56.2 | 0/7 | 2950 ± 710 | 2304 ± 651 | 67.2 | 63.5 | Mortality ([4]; 50 mg/kg): 0/7; sALT ([4]; 50 mg/kg): 2824 ± 754 Karmen Unit; sAST ([4]; 50 mg/kg): 1923 ± 576 Karmen Unit; inhibition at 1 µM [5, 10]: 4.5 ± 1.9%; inhibition at 3 µM [5, 11]: 21.8 ± 3.7%; inhibition at 10 µM [5, 12]: 38.1 ± 3.8%; inhibition at 30 µM [5, 13]: 36.5 ± 4.1% |
| COc1cc(/C=C/C(=O)CC(=O)/C=C/c2ccc(O)c(OC)c2)ccc1O [Curcumin, curcumin] |  |  |  |  |  |  |  |  |  |  |  |  |  |  |  |  |  |  |  |  | sALT Inhibition (%) ([8]; 12.5 mg/kg): 24.0%; sAST Inhibition (%) ([8]; 12.5 mg/kg): 21.1%; Mortality ([8]; 12.5 mg/kg): 0/10; sALT ([8]; 12.5 mg/kg): 5024 ± 1189 Karmen Unit; sAST ([8]; 12.5 mg/kg): 4770 ± 1218 Karmen Unit; sALT Inhibition (%) ([8]; 25 mg/kg): 50.9%; sAST Inhibition (%) ([8]; 25 mg/kg): 47.8%; Mortality ([8]; 25 mg/kg): 0/10; sALT ([8]; 25 mg/kg): 3253 ± 981 Karmen Unit; sAST ([8]; 25 mg/kg): 3177 ± 979 Karmen Unit; sALT Inhibition (%) ([8]; 50 mg/kg): 71.2%; sAST Inhibition (%) ([8]; 50 mg/kg): 63.8%; Mortality ([8]; 50 mg/kg): 1/10; sALT ([8]; 50 mg/kg): 1916 ± 483 Karmen Unit; sAST ([8]; 50 mg/kg): 2220 ± 563 Karmen Unit; Inhibition (%) of D-GalN-induced cytotoxicity ([6]; 3 µM): 0.1 ± 3.8%; Inhibition (%) of D-GalN-induced cytotoxicity ([6]; 10 µM): 1.1 ± 2.2%; Inhibition (%) of D-GalN-induced cytotoxicity ([6]; 30 µM): −17.7 ± 1.3%; Inhibition (%) of D-GalN-induced cytotoxicity ([6]; 100 µM): −44.3 ± 0.3%; Reduction of D-GalN-induced cytotoxicity (in words) ([6]; concentrations of up to 100 μM): did not reduce D-GalN-induced cytotoxicity |
| CC(=O)O[C@@H]1C2C(C)(C)C(=O)C=C[C@]2(C)C2CC[C@@]3(C)[C@H](c4ccoc4)OC(=O)[C@H]4O[C@]43[C@]2(C)[C@@H]1OC(C)=O (stereo partly drawn) [compound 2, 6α-acetoxygedunin] | -2.6 ± 1 | -1.9 ± 0.3 | -2.5 ± 0.7 | -1.8 ± 0.6 | 96.8 ± 1.2 | 102.3 ± 2.2 | 92.5 ± 1.7 | 53.6 ± 5.1 | 16.9 ± 1.7 | 67.6 ± 4.6 | 88.4 ± 3.5 | 99.6 ± 0.2 | 7.9 | 63.7 | 54.7 | 0/7 | 3120 ± 830 | 2384 ± 579 | 72.2 | 67.9 | Mortality ([4]; 50 mg/kg): 0/7; sALT ([4]; 50 mg/kg): 2397 ± 873 Karmen Unit; sAST ([4]; 50 mg/kg): 1696 ± 580 Karmen Unit; inhibition at 1 µM [5, 10]: 10.9 ± 1%; inhibition at 3 µM [5, 11]: 23.2 ± 1.8%; inhibition at 10 µM [5, 12]: 36.3 ± 2.1%; inhibition at 30 µM [5, 13]: 37.3 ± 1.4% |
